# Data published in paper PMC5599990, “Matriptase Induction of Metalloproteinase‐Dependent Aggrecanolysis In Vitro and In Vivo: Promotion of Osteoarthritic Cartilage Damage by Multiple Mechanisms” (Arthritis & Rheumatology (Hoboken, N.j.), 2017).
# Biological target: T1, matriptase (Homo sapiens, UniProt Q9Y5Y6)
# T1 construct: gene ST14; catalytic domain; amino acids 596–855
# T1 sequence (Q9Y5Y6 596-855): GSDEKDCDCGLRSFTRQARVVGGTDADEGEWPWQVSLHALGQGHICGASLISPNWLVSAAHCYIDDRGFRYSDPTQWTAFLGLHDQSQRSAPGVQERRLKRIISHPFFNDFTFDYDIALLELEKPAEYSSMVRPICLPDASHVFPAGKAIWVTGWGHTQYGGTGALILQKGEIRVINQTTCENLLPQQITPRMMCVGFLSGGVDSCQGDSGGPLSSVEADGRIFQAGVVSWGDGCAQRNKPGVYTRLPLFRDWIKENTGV
# Experiment: isothermal titration calorimetry at […] °C ([…] stoichiometry); also enzyme inhibition, Ki =[…]
# Assay type: binding
smiles,measurement,value
"N=C(N)c1cccc(C[C@H](NS(=O)(=O)c2cccc(NC(=O)CCN)c2)C(=O)N2CCC(CCN)CC2)c1 [compound 59, (S)‐3‐amino‐N‐(3‐(N‐(1‐(4‐(2‐aminoethyl)piperidin‐1‐yl)‐3‐(3‐carbamimidoylphenyl)‐1‐oxopropan‐2‐yl)sulfamoyl)phenyl)propanamide × 3HCl]",Kd,20 nM
